# According to US6664285B1, “Use of cell membrane penetrating indigoid bisindole derivatives” (priority 1999, dated 2003):
# Like-named read-outs stand apart in the source and are kept apart here.
# How the values were obtained:
# LXFL 529L cells = experiment: Cellular uptake into LXFL 529L cells; conditions: for distribution cellular organelles / distribution cytosol / amount of substance within the cells: 2 hours incubation
# Procedure: The compounds of Examples 1, 6 and 8 and Comparative Examples 1 and 2 were investigated with respect to their ability to penetrate LXFL 529L cells having the passage numbers P23 to P39. The amounts of the substances taken up by the cells are given depending on the concentration of the substance within the incubation medium. The time of incubation was 2 hours in all of the experiments. Furthermore, the distribution of the substance which was taken up by the cells in the cytosol and the cellular organelles (particular) was estimated and is given in the intermediate column of Table 2. Tumor cell growth inhibition was determined by the sulfo-rhodamine B assay (SRB assay) according to Skehan et al., J. Natl. Cancer Institute 82, pages 1107-1112 (1990). Incubation was conducted for three days in serum containing medium. Tumor cell lines tested were a large-cell lung carcinoma xenograft line LXFL 529 L and the mammary carcinoma line MCF-7.
# [1] = test system: large-cell lung carcinoma xenograft line LXFL 529 L; experiment: Tumor cell growth inhibition, sulforhodamine B (SRB) assay; type: cell-based, human; conditions: LXFL529L; three days incubation, serum containing medium
# [2] = test system: mammary carcinoma line MCF-7; experiment: as above; type: cell-based, human; conditions: MCF7; three days incubation, serum containing medium
# [3] = test system: LXFL529 (lung large-cell); experiment: Colony-forming assay; type: cell-based, human
# MCF7X (mammary) = experiment: Colony-forming assay; type: cell-based, human; conditions: for IC50: read-out: IC50 colony formation
# OVXF1353 (ovarian) = experiment: Colony-forming assay; type: cell-based, human
# Procedure: (§1) The anti-tumor activity of the compounds was evaluated via a colony-forming-assay as described e.g. by D. P. Berger et al. in Annals of Oncology 1, pages 333-341 (1 990), “The clonongenic assay with human tumor xenografts, evaluation, predictive values and application for drug screening”.
# (§2) The experiments were conducted using various tumor cell lines, in particular mammary carcinoma (MAXF), lung adenocarcinoma (LXFA), large-cell lung carcinoma (LXFL), small-cell lung carcinoma (LXFS), colon carcinoma (CXF), melanoma (MEXF), pancreatic carcinoma (PAXF), renal carcinoma (RXF), ovarian carcinoma (OVXF) and bladder carcinoma (BXF).
# PAXF736 (pancreatic) = experiment: Colony-forming assay; type: cell-based, human; conditions: for IC50: read-out: IC50 colony formation
# [4] = test system: human tumor xenograft LXFL 529; experiment: In vivo testing in nude mice bearing subcutaneous tumor xenograft; conditions: for tumor growth (relative tumor volume) compared to the vehicle control (in words): LXFL 529/17, i.p., nude mice, FIG. 1
# Procedure: Compound of Examples 1, 4, 6, 8, 9 and 10 were subjected to in vivo testing in nude mice bearing subcutaneously growing human tumor xenograft LXFL 529. The indigoid bisindole derivatives were applied intraperitoneally to the animals in doses and according to the schedule as described in Table 4.
# The experiments were run for 21 or 28 days. Anti-tumor activity was evaluated comparing the median tumor volume relative to control, expressed as %T/C, wherein T is the test group and C the vehicle control group. In Table 4, anti-tumor activity is given according to an activity rate scale.
# [5] = cited from earlier work
# HT29X (colon) = experiment: Colony-forming assay; type: cell-based, human; conditions: colon HT29X; for IC50: read-out: IC50 colony formation
# MEXF514 (melanoma) = experiment: Colony-forming assay; type: cell-based, human
# OVXF1352 (ovarian) = test system: OVXF1352 (ovarian)
# Procedure: as §1, §2
# [6] = dosage of 100 mg/kg up to 300 mg/kg, FIG. 2 and FIG. 4
# Text: A reduction of the body weight of the tested mice of more then 20% by weight in general is interpreted as a toxic dose.
# [7] = test system: LXFS650 (lung small-cell); experiment: Colony-forming assay; type: cell-based, human
# CXF280 (colon) = experiment: Colony-forming assay; type: cell-based, human
# MX1 (mammary) = experiment: Colony-forming assay; type: cell-based, human
# BXF1299 (bladder) = experiment: Colony-forming assay; type: cell-based, human
# [8] = concentration of incubation 10 μM
# [9] = concentration of incubation 20 μM
# [10] = read-out: IC50 colony formation
# [11] = Homo sapiens, read-out: IC50 colony formation
smiles,measurement,setting,value
"O=C1Nc2ccccc2/C1=C1/Nc2ccccc2C1=O [Example 1, Indirubin]",uptake by the tumor cells (in words),LXFL 529L cells; LXFL 529L cells,taken up by the tumor cells
same,distribution cellular organelles,LXFL 529L cells; [8],93 ± 5.7%
same,distribution cytosol,LXFL 529L cells; [8],7 ± 5.7%
same,distribution cellular organelles,LXFL 529L cells; [9],94 ± 1.4%
same,distribution cytosol,LXFL 529L cells; [9],6 ± 1.4%
same,IC50,[1],9.9 ± 0.1 µM
same,IC50,[2],4 ± 2 µM
same,IC70 colony formation,[3],35.6 µM
same,IC50,[3]; [10],25.3 µM
same,IC70 colony formation,MCF7X (mammary),6.0 µM
same,IC50,MCF7X (mammary),2000 nM
same,IC70 colony formation,OVXF1353 (ovarian),>30 µM
same,IC50,OVXF1353 (ovarian); [10],12.3 µM
same,IC70 colony formation,PAXF736 (pancreatic),>30 µM
same,IC50,PAXF736 (pancreatic),5.4 µM
same,activity rating,"[4]; 100 mg/kg/day i.p., days 1-5, 8-9",+ (tumor inhibition T/C > 25-50%)
same,activity rating,"[4]; 200 mg/kg/day i.p., days 1-5, 8-9",++ (tumor stasis T/C ≦ 25%)
same,tumor growth (relative tumor volume) compared to the vehicle control (in words),[4],significantly inhibited the tumor growth
same,solubility in water (in words),[5],dissolves only poorly in water
"Cc1ccc2c(c1)/C(=C1/Nc3ccccc3C1=O)C(=O)N2 [Example 6, 5-Methylindirubin]",ability to penetrate the cellular membrane / uptake compared to indirubin (Example 1) (in words),LXFL 529L cells; LXFL 529L cells,substantially improved
same,uptake by the tumor cells (in words),LXFL 529L cells; LXFL 529L cells,taken up by the tumor cells
same,amount of substance within the cells,LXFL 529L cells; [8],0.52 ± 0.1
same,distribution cellular organelles,LXFL 529L cells; [8],87 ± 0.7%
same,distribution cytosol,LXFL 529L cells; [8],13 ± 0.7%
same,amount of substance within the cells,LXFL 529L cells; [9],0.86 ± 0.22
same,distribution cellular organelles,LXFL 529L cells; [9],94 ± 2.8%
same,distribution cytosol,LXFL 529L cells; [9],6 ± 2.8%
same,IC50,[1],7.5 ± 0.5 µM
same,IC50,[2],4.8 ± 0.5 µM
same,IC70 colony formation,MCF7X (mammary),1.2 µM
same,IC50,MCF7X (mammary),< 1000 nM
same,IC70 colony formation,PAXF736 (pancreatic),27.5 µM
same,IC50,PAXF736 (pancreatic),15.4 µM
same,IC70 colony formation,HT29X (colon),14.4 µM
same,IC50,HT29X (colon),< 1000 nM
same,IC70 colony formation,MEXF514 (melanoma),27.8 µM
same,IC50,MEXF514 (melanoma); [10],19.2 µM
same,IC70 colony formation,OVXF1352 (ovarian),>30 µM
same,IC50,OVXF1352 (ovarian); [10],1000 nM
same,activity rating,"[4]; 100 mg/kg/day i.p., days 1-5, 8-12, 15, 17, 19, 22",++ (tumor stasis T/C ≦ 25%)
same,activity rating,"[4]; 300 mg/kg/day i.p., days 1, 4, 8, 11, 15, 18, 22",++ (tumor stasis T/C ≦ 25%)
same,tumor growth (relative tumor volume) compared to the vehicle control (in words),[4],significantly inhibited the tumor growth
same,anti-tumor activity (in words),"[4]; dosage of 100 mg/kg up to 300 mg/kg, FIG. 1 and FIG. 3",very high anti-tumor activity
same,reduction of body weight (in words),[6],without any significant reduction of body weight
"c1ccc(-c2c(-c3[nH]c4ccccc4c3-c3ccccc3)[nH]c3ccccc23)cc1 [Example 14, Bis(3-phenylindol-2-yl)]",IC50,HT29X (colon); Homo sapiens,1600 nM
same,IC70 colony formation,HT29X (colon),3.4 µM
same,IC70 colony formation,[7],6.7 µM
same,IC50,[7]; [11],4.7 µM
same,IC70 colony formation,CXF280 (colon),7.2 µM
same,IC50,CXF280 (colon); [11],< 1000 nM
same,IC70 colony formation,MX1 (mammary),4.8 µM
same,IC50,MX1 (mammary); [11],2800 nM
same,IC70 colony formation,BXF1299 (bladder),6.2 µM
same,IC50,BXF1299 (bladder); [11],2700 nM
same,activity rating,"[4]; 10 mg/kg/day i.p., days 1-5, 8-12",− (inactive T/C > 50%)
same,activity rating,"[4]; 100 mg/kg/day i.p., days 1-5, 8-12",+ (tumor inhibition T/C > 25-50%)
same,activity rating,"[4]; 300 mg/kg/day i.p., days 1-5, 8-12",+ (tumor inhibition T/C > 25-50%)
